In PubChem BioAssay AID1963425 (Molecular Pharmacology Branch, DTP, NCI, 2024):

Test system: 323965-272-R-J2-PDC complex spheroid growth, % test/control
Experiment: Anticancer human tumor 323965-272-R-J2-PDC patient-derived pancreatic carcinoma cell line growth inhibition [Asc]
Details: for IC50: curve of first compound; for viability, T/C: stronger effect = lower value
Method in brief: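 Spheroid model: tumor line + HUVEC + hMSC. Single agents and combinations; top conc. at/near clinical Cmax (10 microM if undetermined), half-log dilutions. DMSO stocks at 800-fold test concentration.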
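Also: compound exposure lasted 7 days starting three days after spheroid seeding.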
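For viability, T/C in this document: 100% = DMSO vehicle control wells with viability set relative to vehicle.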

IC50 (second compound 0.0316 µM): > 10 µM
IC50 (second compound 0.1 µM): > 10 µM
IC50 (second compound 0.316 µM): > 10 µM
IC50 (second compound 1 µM): > 10 µM
IC50 (second compound 3.16 µM): 0.0793 µM
IC50 (second compound 10 µM): < 0.0316 µM
SMILES: C=CC(=O)N1CCN(c2nc(=O)n(-c3c(C)ccnc3C(C)C)c3nc(-c4c(O)cccc4F)c(F)cc23)C(C)C1 (configuration not stated) + Cc1c(S(C)(=O)=O)c(-c2cc(F)cc(N3CCN(c4ccc(NS(=O)(=O)c5ccc(NC(CCN6CCC(C(=O)OCCCP(=O)(O)O)CC6)CSc6ccccc6)c(S(=O)(=O)C(F)(F)F)c5)cc4)CC3)c2)c(-c2ccc(Cl)cc2)n1C(C)C
viability, T/C (second compound 0.0316 µM, first compound 0.0316 µM): 82.1%
viability, T/C (second compound 0.0316 µM, first compound 0.1 µM): 64.8%
viability, T/C (second compound 0.0316 µM, first compound 0.316 µM): 65.9%
viability, T/C (second compound 0.0316 µM, first compound 1 µM): 62.3%
viability, T/C (second compound 0.0316 µM, first compound 3.16 µM): 63.7%
viability, T/C (second compound 0.0316 µM, first compound 10 µM): 67%
viability, T/C (second compound 0.1 µM, first compound 0.0316 µM): 74.3%
viability, T/C (second compound 0.1 µM, first compound 0.1 µM): 64.4%
viability, T/C (second compound 0.1 µM, first compound 0.316 µM): 68%
viability, T/C (second compound 0.1 µM, first compound 1 µM): 64.2%
viability, T/C (second compound 0.1 µM, first compound 3.16 µM): 66.7%
viability, T/C (second compound 0.1 µM, first compound 10 µM): 56.8%
viability, T/C (second compound 0.316 µM, first compound 0.0316 µM): 76.8%
viability, T/C (second compound 0.316 µM, first compound 0.1 µM): 60.1%
viability, T/C (second compound 0.316 µM, first compound 0.316 µM): 56.1%
viability, T/C (second compound 0.316 µM, first compound 1 µM): 59%
viability, T/C (second compound 0.316 µM, first compound 3.16 µM): 58.6%
viability, T/C (second compound 0.316 µM, first compound 10 µM): 53.5%
viability, T/C (second compound 1 µM, first compound 0.0316 µM): 65.3%
viability, T/C (second compound 1 µM, first compound 0.1 µM): 59.5%
viability, T/C (second compound 1 µM, first compound 0.316 µM): 57%
viability, T/C (second compound 1 µM, first compound 1 µM): 54.5%
viability, T/C (second compound 1 µM, first compound 3.16 µM): 61.4%
viability, T/C (second compound 1 µM, first compound 10 µM): 46%
viability, T/C (second compound 3.16 µM, first compound 0.0316 µM): 62.2%
viability, T/C (second compound 3.16 µM, first compound 0.1 µM): 47.4%
viability, T/C (second compound 3.16 µM, first compound 0.316 µM): 43.2%
viability, T/C (second compound 3.16 µM, first compound 1 µM): 38.4%
viability, T/C (second compound 3.16 µM, first compound 3.16 µM): 43.8%
viability, T/C (second compound 3.16 µM, first compound 10 µM): 44%
viability, T/C (second compound 10 µM, first compound 0.0316 µM): 48.2%
viability, T/C (second compound 10 µM, first compound 0.1 µM): 40.9%
viability, T/C (second compound 10 µM, first compound 0.316 µM): 39.7%
viability, T/C (second compound 10 µM, first compound 1 µM): 40.5%
viability, T/C (second compound 10 µM, first compound 3.16 µM): 44.9%
viability, T/C (second compound 10 µM, first compound 10 µM): 39%
